According to the supplement of paper PMC10307832:

What was measured:
Test in all cases: relative viability (nuclei count vs DMSO), 5 days (fraction); higher = more cells survive
[1] = system: NCI-H1944
Summary of the method: (§1)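 Dosing by pin tool came one day after lung cancer cell lines were seeded in 1536-well plates, using either one drug or a fixed anchor-drug dose plus five library-drug doses (not always all listed) in √10 steps. After 5 days, nuclei were counted on 4× images. Relative viability is treated-well nuclei count divided by vehicle-well nuclei count, and values are medians of duplicate plates.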

[2] = system: NCI-H661
Summary of the method: as §1

[3] = system: NCI-H441
Summary of the method: as §1

[4] = system: LCLC-103H
Summary of the method: as §1

[5] = system: NCI-H1355
Summary of the method: as §1

[6] = system: LXF-289
Summary of the method: as §1

[7] = system: NCI-H1993
Summary of the method: as §1

[8] = system: ChaGo-K-1
Summary of the method: as §1

[9] = system: LK-2
Summary of the method: as §1

[10] = system: NCI-H727
Summary of the method: as §1

[11] = system: NCI-H647
Summary of the method: as §1

[12] = system: HCC-827
Summary of the method: as §1

[13] = system: NCI-H2170
Summary of the method: as §1

[14] = system: RERF-LC-KJ
Summary of the method: as §1

[15] = system: SK-MES-1
Summary of the method: as §1

[16] = system: BEN
Summary of the method: as §1

[17] = system: NCI-H1666
Summary of the method: as §1

[18] = system: HOP-62
Summary of the method: as §1

[19] = system: EKVX
Summary of the method: as §1

[20] = system: LOU-NH91
Summary of the method: as §1

[21] = system: NCI-H1437
Summary of the method: as §1

[22] = system: NCI-H2126
Summary of the method: as §1

[23] = system: PC-14
Summary of the method: as §1

`Cc1cn(-c2cc(NC(=O)c3ccc(C)c(Nc4nccc(-c5cccnc5)n4)c3)cc(C(F)(F)F)c2)cn1` [Nilotinib] + N=C(N)NC(=N)NCCc1ccccc1 [Phenformin] (partner 250 µM) was tested, and the relative viability ([1]; first compound 0.001 µM) was 0.193, the relative viability ([1]; first compound 0.003162 µM) was 0.216 and the relative viability ([1]; first compound 0.01 µM) was 0.222. The relative viability ([1]; first compound 0.03162 µM) was 0.181, the relative viability ([2]; first compound 0.001 µM) was 0.307 and the relative viability ([2]; first compound 0.003162 µM) was 0.268. The relative viability ([2]; first compound 0.03162 µM) was 0.279, the relative viability ([2]; first compound 0.1 µM) was 0.288 and the relative viability ([3]; first compound 0.001 µM) was 0.798. The relative viability ([3]; first compound 0.003162 µM) was 0.89, the relative viability ([3]; first compound 0.01 µM) was 0.896 and the relative viability ([3]; first compound 0.03162 µM) was 0.648. For the same compound, the relative viability ([3]; first compound 0.1 µM) was 0.881, the relative viability ([4]; first compound 0.001 µM) was 0.326 and the relative viability ([4]; first compound 0.003162 µM) was 0.307. The relative viability ([4]; first compound 0.01 µM) was 0.338, the relative viability ([4]; first compound 0.03162 µM) was 0.333 and the relative viability ([4]; first compound 0.1 µM) was 0.288. For the same compound, the relative viability ([5]; first compound 0.001 µM) was 0.451, the relative viability ([5]; first compound 0.003162 µM) was 0.426 and the relative viability ([5]; first compound 0.01 µM) was 0.401. For the same compound, the relative viability ([5]; first compound 0.03162 µM) was 0.361, the relative viability ([5]; first compound 0.1 µM) was 0.424 and the relative viability ([6]; first compound 0.001 µM) was 0.545. It also gave a relative viability ([6]; first compound 0.003162 µM) of 0.562, a relative viability ([6]; first compound 0.01 µM) of 0.558 and a relative viability ([6]; first compound 0.03162 µM) of 0.506. The relative viability ([6]; first compound 0.1 µM) was 0.454, the relative viability ([7]; first compound 0.001 µM) was 0.554 and the relative viability ([7]; first compound 0.003162 µM) was 0.55. For the same compound, the relative viability ([7]; first compound 0.01 µM) was 0.522, the relative viability ([7]; first compound 0.03162 µM) was 0.482 and the relative viability ([7]; first compound 0.1 µM) was 0.701. It also gave a relative viability ([8]; first compound 0.001 µM) of 0.469, a relative viability ([8]; first compound 0.003162 µM) of 0.442 and a relative viability ([8]; first compound 0.01 µM) of 0.473. It also gave a relative viability ([8]; first compound 0.03162 µM) of 0.394, a relative viability ([8]; first compound 0.1 µM) of 0.315 and a relative viability ([9]; first compound 0.001 µM) of 0.441. The relative viability ([9]; first compound 0.003162 µM) was 0.367, the relative viability ([9]; first compound 0.01 µM) was 0.337 and the relative viability ([9]; first compound 0.03162 µM) was 0.22. The relative viability ([9]; first compound 0.1 µM) was 0.314, the relative viability ([10]; first compound 0.001 µM) was 0.579 and the relative viability ([10]; first compound 0.003162 µM) was 0.577. It also gave a relative viability ([10]; first compound 0.01 µM) of 0.419, a relative viability ([10]; first compound 0.03162 µM) of 0.379 and a relative viability ([10]; first compound 0.1 µM) of 0.346. The relative viability ([11]; first compound 0.001 µM) was 0.627, the relative viability ([11]; first compound 0.003162 µM) was 0.628 and the relative viability ([11]; first compound 0.01 µM) was 0.594. For the same compound, the relative viability ([11]; first compound 0.03162 µM) was 0.449, the relative viability ([11]; first compound 0.1 µM) was 0.336 and the relative viability ([12]; first compound 0.003162 µM) was 0.436. It also gave a relative viability ([12]; first compound 0.01 µM) of 0.384, a relative viability ([12]; first compound 0.03162 µM) of 0.438 and a relative viability ([12]; first compound 0.1 µM) of 0.384. The relative viability ([13]; first compound 0.001 µM) was 0.408, the relative viability ([13]; first compound 0.003162 µM) was 0.432 and the relative viability ([13]; first compound 0.01 µM) was 0.409. It also gave a relative viability ([13]; first compound 0.03162 µM) of 0.394, a relative viability ([13]; first compound 0.1 µM) of 0.363 and a relative viability ([14]; first compound 0.001 µM) of 0.406. The relative viability ([14]; first compound 0.003162 µM) was 0.449, the relative viability ([14]; first compound 0.01 µM) was 0.43 and the relative viability ([14]; first compound 0.03162 µM) was 0.344. It also gave a relative viability ([14]; first compound 0.1 µM) of 0.453, a relative viability ([15]; first compound 0.001 µM) of 0.614 and a relative viability ([15]; first compound 0.003162 µM) of 0.734. The relative viability ([15]; first compound 0.01 µM) was 0.74, the relative viability ([15]; first compound 0.03162 µM) was 0.566 and the relative viability ([15]; first compound 0.1 µM) was 0.554. For the same compound, the relative viability ([16]; first compound 0.001 µM) was 0.264, the relative viability ([16]; first compound 0.003162 µM) was 0.292 and the relative viability ([16]; first compound 0.01 µM) was 0.237. The relative viability ([16]; first compound 0.03162 µM) was 0.259, the relative viability ([16]; first compound 0.1 µM) was 0.289 and the relative viability ([17]; first compound 0.001 µM) was 0.605. It also gave a relative viability ([17]; first compound 0.003162 µM) of 0.615, a relative viability ([17]; first compound 0.01 µM) of 0.578 and a relative viability ([17]; first compound 0.03162 µM) of 0.545. It also gave a relative viability ([17]; first compound 0.1 µM) of 0.652, a relative viability ([18]; first compound 0.001 µM) of 0.512 and a relative viability ([18]; first compound 0.003162 µM) of 0.706. It also gave a relative viability ([18]; first compound 0.01 µM) of 0.771, a relative viability ([18]; first compound 0.03162 µM) of 0.444 and a relative viability ([18]; first compound 0.1 µM) of 0.441. It also gave a relative viability ([19]; first compound 0.001 µM) of 0.231, a relative viability ([19]; first compound 0.003162 µM) of 0.232 and a relative viability ([19]; first compound 0.01 µM) of 0.248. It also gave a relative viability ([19]; first compound 0.03162 µM) of 0.214, a relative viability ([19]; first compound 0.1 µM) of 0.236 and a relative viability ([20]; first compound 0.001 µM) of 0.752. For the same compound, the relative viability ([20]; first compound 0.003162 µM) was 0.736, the relative viability ([20]; first compound 0.01 µM) was 0.861 and the relative viability ([20]; first compound 0.03162 µM) was 0.663. It also gave a relative viability ([20]; first compound 0.1 µM) of 0.75, a relative viability ([21]; first compound 0.001 µM) of 0.325 and a relative viability ([21]; first compound 0.003162 µM) of 0.335. It also gave a relative viability ([21]; first compound 0.01 µM) of 0.331, a relative viability ([21]; first compound 0.03162 µM) of 0.23 and a relative viability ([21]; first compound 0.1 µM) of 0.224. The relative viability ([22]; first compound 0.001 µM) was 0.546, the relative viability ([22]; first compound 0.003162 µM) was 0.535 and the relative viability ([22]; first compound 0.01 µM) was 0.538. It also gave a relative viability ([22]; first compound 0.03162 µM) of 0.534, a relative viability ([22]; first compound 0.1 µM) of 0.562 and a relative viability ([23]; first compound 0.001 µM) of 0.573. For the same compound, the relative viability ([23]; first compound 0.003162 µM) was 0.538, the relative viability ([23]; first compound 0.01 µM) was 0.546 and the relative viability ([23]; first compound 0.03162 µM) was 0.459. The relative viability ([23]; first compound 0.1 µM) was 0.542.
